Assay results taken from patent US20060287319A1, “Anti-viral compositions comprising heterocyclic substituted phenyl furans and related compounds” (priority 2005, published 2006).
Like-named read-outs stand apart in the source and are kept apart here.

Key:
HIV-1 IIIB [1] = conditions: for EC50: read-out: EC50 (μM) (M ± SD) for inhibition of p24, HIV-1 IIIB, MT-2 cells
Protocol: Assessment of anti-HIV-1 infectivity. The inhibitory activity of compounds on infection by laboratory-adapted HIV-1 strains was determined as previously described (34). […] For the time-of-addition assay, compounds were added at various time post-infection. Then the culture supernatants were removed and fresh media were added. On the fourth day post-infection, 100 μl of culture supernatants were collected from each well, mixed with equal volumes of 5% Triton X-100 and assayed for p24 antigen, which was quantitated by ELISA (23). Briefly, the wells of polystyrene plates (Immulon 1B, Dynex Technology, Chantilly, Va.) were coated with HIV immunoglobulin (HIVIG), which was prepared from plasma of HIV-seropositive donors with high neutralizing titers against HIV-1IIIB as previously described (36) in 0.085 M carbonate-bicarbonate buffer (pH 9.6) at 4° C. overnight, followed by washes with PBS-T buffer (0.01M PBS containing 0.05% Tween-20) and blocking with PBS containing 1% dry fat-free milk (Bio-Rad Inc., Hercules, Calif.). Virus lysates were added to the wells and incubated at 37° C. for 1 h. […] Reactions were terminated by addition of 1N H2SO4. […] Recombinant protein p24 (US Biological, Swampscott, Mass.) was included for establishing standard dose response curve.

[2] = tested on: HIV-1IIIB infected H9 cells (H9/HIV-1IIIB) and MT-2 cells; test: HIV-1 mediated cell-cell fusion (dye transfer assay); format: cell-based; conditions: H9/HIV-1IIIB with MT-2 cells; read-out: EC50 (μM) (M ± SD) for inhibition of Cell fusion
Protocol: Inhibition of cell-cell fusion. A dye transfer assay was used for detection of HIV-1 mediated cell fusion as previously described (11,25,26). H9/HIV-1IIIB cells were labeled with a fluorescent reagent, Calcein-AM (Molecular Probes, Inc., Eugene, Oreg.) and then incubated with MT-2 cells (ratio=1:5) in 96-well plates at 37° C. for 2 hrs in the presence or absence of compounds tested. The fused and unfused Cacein-labeled HIV-1-infected cells were counted under an inverted fluorescence microscope (Zeiss, Germany) with an eyepiece micrometer disc. The percentage of inhibition of cell fusion and the IC50 values were calculated as previously described (11).

HIV-1 IIIB [3] = test: HIV-1-mediated cytopathic effect (CPE); format: cell-based; conditions: read-out: EC50 (μM) (M ± SD) for inhibition of CPE
Description: We thus purchased these compounds and tested their inhibitory activity on: 1) HIV-1 replication (p24 production); 2) HIV-1-mediated cytopathic effect (CPE); and 3) HIV-1 Env-induced cell-cell fusion; and their cytotoxicity to MT-2 cells.

MT-2 cells = tested on: MT-2 cells
Protocol: Detection of in vitro cytotoxicity. The in vitro cytotoxicity of compounds for MT-2 cells was measured by a colorimetric method using XTT tetrazolium dye as previously described (21). Briefly, 100 μl of a compound at a graded concentration was added to equal volume of cells (5×10^5/ml) in a well of 96-well plates. After incubation at 37° C. for 4 days, XTT (1 mg/ml; […]; PolySciences, Inc., Warrington, Pa.) was added. Four hours later, the soluble intracellular formazan was quantitated colorimetrically at 450 nm with a reference at 570 nm.

[4] = read-out: Cytotoxicity CC50 (μM) (M ± SD), MT-2 cells

Compound	EC50 (HIV-1 IIIB [1]) [µM]	EC50 [2] [µM]	EC50 (HIV-1 IIIB [3]) [µM]	CC50 (MT-2 cells; [4]) [µM]	SI (CC50/EC50) (HIV-1 IIIB [1]; selectivity index)	SI (CC50/EC50) (HIV-1 IIIB [1])	CC50 (MT-2 cells) [µM]
O=C(O)c1cc(-c2ccc(/C=C3\SC(=O)N(c4cccc(Cl)c4)C3=O)o2)ccc1Cl [NB139]	> 100	> 100	> 100	239 ± 14.7			
O=C(O)c1cc(-c2ccc(/C=C3\SC(=O)N(c4ccc(Cl)cc4)C3=O)o2)ccc1Cl [NB140]	12.1 ± 2.73	> 100	63.4 ± 1.28	126 ± 19.2	10.41		
Cc1ccc(N2C(=O)/C(=C/c3ccc(-c4cccc(C(=O)O)c4)o3)SC2=S)c(C)c1 [NB146]	0.299 ± 0.046	1.08	1.77 ± 0.368	33.8 ± 4.44	103.15		
O=C(O)c1cccc(-c2ccc(/C=C3\SC(=S)N(c4cccc(F)c4)C3=O)o2)c1 [NB147]	10.4 ± 0.84	> 100	> 100	92.3 ± 5.62	8.85		
COc1ccccc1N1C(=O)/C(=C/c2ccc(-c3cccc(C(=O)O)c3)o2)SC1=S [NB148]	2.65	34.9				>266.67	> 368
Cc1cccc(N2C(=O)/C(=C/c3ccc(-c4cccc(C(=O)O)c4)o3)SC2=S)c1 [NB150]	0.308 ± 0.047	0.56 ± 0.05	0.403 ± 0.119	38.7 ± 5.85	125.69		
CN1C(=O)/C(=C/c2ccc(-c3cccc(C(=O)O)c3)o2)SC1=S [NB151]	0.667 ± 0.174	43.7	3.86 ± 0.58			187.17	125 ± 14.7
COc1ccc(N2C(=O)/C(=C/c3ccc(-c4cccc(C(=O)O)c4)o3)SC2=S)cc1 [NB156]	0.779 ± 0.092	2.66	3.16 ± 1.35	> 399	>470.59		
O=C(O)c1cccc(-c2ccc(/C=C3\SC(=O)N(c4ccccc4)C3=O)o2)c1 [NB158]	> 100	> 100	> 100	> 102			
O=C(O)c1cccc(-c2ccc(/C=C3\SC(=O)N(c4ccc(Cl)cc4)C3=O)o2)c1 [NB160]	> 100	> 100	> 100	> 376			
O=C(O)CN1C(=O)/C(=C/c2ccc(-c3cccc(C(=O)O)c3)o2)SC1=S [NB180]	> 100	> 100	> 100				> 411
O=C(O)c1cccc(-c2ccc(/C=C3\SC(=S)N(C4CCCCC4)C3=O)o2)c1 [NB181]	0.218 ± 0.024	> 100	0.605 ± 0.194	> 387	>1777.78		
O=C(O)c1cccc(-c2ccc(/C=C3\SC(=S)N(Cc4ccccc4)C3=O)o2)c1 [NB182]	0.83 ± 0.024	1.68 ± 0.142	2.25 ± 1.14				
C=CCN1C(=O)/C(=C/c2ccc(-c3cccc(C(=O)O)c3)o2)SC1=S [NB183]	0.323 ± 0.081	16.8 ± 0.457	0.753 ± 0.081			537.83	174 ± 16.2
O=C1NC(=S)S/C1=C\c1ccc(-c2cccc(C(=O)O)c2)o1 [NB184]	> 100	> 100	> 100			>28.93	> 483
O=C1NC(=S)S/C1=C\c1ccc(-c2ccc(Cl)c(C(=O)O)c2)o1 [NB185]	76.9 ± 3.52	> 100	50.3 ± 4.09			>5.68	> 437
CN1C(=O)S/C(=C\c2ccc(-c3cc(C(=O)O)ccc3Cl)o2)C1=O [NB186]	> 100	> 100	> 100				> 440
Cc1ccc(C(=O)O)cc1-c1ccc(/C=C2\SC(=O)N(c3ccccc3)C2=O)o1 [NB187]	> 100	> 100	> 100	363 ± 40.1			
Cc1ccc(C(=O)O)cc1-c1ccc(/C=C2\SC(=S)NC2=O)o1 [NB188]	> 100	> 100	> 100				197 ± 13
C=CCN1C(=O)/C(=C/c2ccc(-c3cccc(C(=O)O)c3C)o2)SC1=S [NB189]	0.984 ± 0.155	4.33 ± 0.078	2.28 ± 0.389			>421.05	> 414

Compound	EC50 (HIV-1 IIIB [1]) [µM]	EC50 [2] [µM]	EC50 (HIV-1 IIIB [3]) [µM]	CC50 (MT-2 cells; [4]) [µM]	SI (CC50/EC50) (HIV-1 IIIB [1]; selectivity index)	SI (CC50/EC50) (HIV-1 IIIB [1])	CC50 (MT-2 cells) [µM]
O=C1NC(=S)S/C1=C\c1ccc(-c2cc(C(=O)O)ccc2Cl)o1 [NB190]	> 100	> 100	> 100				> 437
O=C(O)c1cc(-c2ccc(/C=C3\SC(=O)N(Cc4ccc(F)cc4)C3=O)o2)ccc1Cl [NB191]	> 100	> 100	> 100	> 349			
O=C(O)c1cc(-c2ccc(/C=C3\SC(=O)N(Cc4ccccc4)C3=O)o2)ccc1Cl [NB192]	> 100	> 100	> 100				
CC(C)CN1C(=O)S/C(=C\c2ccc(-c3ccc(Cl)c(C(=O)O)c3)o2)C1=O [NB193]	> 100	> 100	> 100				> 394
Cc1ccc(NC(=O)CN2C(=O)S/C(=C\c3ccc(-c4cccc(C(=O)O)c4)o3)C2=O)cc1 [NB194]	> 100	> 100	> 100				207 ± 4.4
Cc1c(C(=O)O)cccc1-c1ccc(/C=C2\SC(=O)N(CC(=O)Nc3ccccc3F)C2=O)o1 [NB195]	> 100	> 100	> 100	154 ± 6.93			
Cc1ccc(NC(=O)CN2C(=O)S/C(=C\c3ccc(-c4cccc(C(=O)O)c4C)o3)C2=O)cc1 [NB196]	> 100	> 100	> 100				> 336
Cc1ccc(NC(=O)CN2C(=O)S/C(=C\c3ccc(-c4cc(C(=O)O)ccc4Cl)o3)C2=O)cc1 [NB197]	> 100	> 100	> 100				> 341
Cc1cccc(NC(=O)CN2C(=O)S/C(=C\c3ccc(-c4cc(C(=O)O)ccc4Cl)o3)C2=O)c1 [NB198]	> 100	> 100	> 100				> 322
Cc1ccc(NC(=O)CN2C(=O)S/C(=C\c3ccc(-c4ccc(Cl)c(C(=O)O)c4)o3)C2=O)cc1 [NB199]	> 100	> 100	> 100				> 322
C#CCN1C(=O)S/C(=C\c2ccc(-c3ccc(Cl)c(C(=O)O)c3)o2)C1=O [NB200]	> 100	> 100	> 100				> 413
COCCN1C(=O)/C(=C/c2ccc(-c3ccc(Cl)c(C(=O)O)c3)o2)SC1=S [NB201]	10.7 ± 3.09	33.2 ± 0.566	> 100			11.08	118 ± 8.54
O=C(O)c1cc(-c2ccc(/C=C3\SC(=O)N(CC(=O)N4CCOCC4)C3=O)o2)ccc1Cl [NB202]	> 100	> 100	> 100	> 336			
C#CCN1C(=O)S/C(=C\c2ccc(-c3cc(C(=O)O)ccc3Cl)o2)C1=O [NB203]	> 100	> 100	> 100				> 413
CCOC(=O)CN1C(=O)S/C(=C\c2ccc(-c3ccc(Cl)c(C(=O)O)c3)o2)C1=O [NB204]	> 100	> 100	> 100				> 366
C#CCN1C(=O)S/C(=C\c2ccc(-c3cc(C(=O)O)ccc3C)o2)C1=O [NB205]	> 100	> 100	> 100				> 435
O=C(O)c1cc(-c2ccc(/C=C3\SC(=S)N(Cc4ccccc4)C3=O)o2)ccc1Cl [NB217]	0.767 ± 0.219	2.3 ± 0.131	2.37 ± 0.657				
C=CCN1C(=O)/C(=C/c2ccc(-c3cc(C(=O)O)cc(C(=O)O)c3)o2)SC1=S [NB225]	> 100		> 100				> 386
O=C(O)c1cccc(-c2ccc(/C=C3\SC(=S)N(Cc4ccco4)C3=O)o2)c1 [NB238]						>14.57	
